Assay results taken from patent publication EP4631940A1, “COMPOUND TARGETING PAN-KRAS PROTEIN DEGRADATION AGENT AND USE THEREOF” (Betta Pharmaceuticals Co., Ltd., priority 2022, dated 2024).
Where two headings read alike, the source gives them in different places.

Assays:
[1] = target: T1, KRAS G12D (Homo sapiens, UniProt P01116, G12D); experiment: cell-based; details: AGS
[2] = in vitro; details: dog, microsomes
[3] = test system: AGS; experiment: Cell proliferation experiment (CellTiter-Glo); format: cell-based; details: Homo sapiens, AGS, 96 h, read-out: IC50(nM) AGS
[4] = in vitro; details: mouse, microsomes
[5] = PK study in ICR mice (plasma); format: in vivo; details: Female ICR mice, IV 1 mg/kg
Experimental: Example 9 PK Study of Compound in ICR Mice (plasma)
(§1) The compound was mixed with the vehicle (10% DMSO / 5% Solutol HS 15 / 85% saline), vortexed, and sonicated to prepare a clear solution at 0.2 mg/mL. Female ICR mice aged 6 to 7 weeks (non-fasted) were intravenously administered the compound. Plasma was collected at specified time points. Drug concentration was analyzed by LC-MS/MS, and pharmacokinetic parameters were calculated using Phoenix WinNonlin software (Pharsight Corporation, USA). Table 12 Mouse PK Data for Intravenous Compound Monotherapy

[6] = in vitro; details: human, microsomes
[7] = target: T1, KRAS G12D
[8] = not given; remark: listed apart in the source
[9] = PK study in Balbc mice (whole blood); format: in vivo; details: Female Balbc mice, IV 1 mg/kg
Experimental: Example 7 PK Study of Compound 2 in Balbc Mice
as §1, with “Compound 2” for “The compound”, “Balbc” for “ICR”, “Compound 2. Whole blood” for “the compound. Plasma”, “10” for “12”, “Compound 2” for “Compound”

[10] = test system: SW620; experiment: Cell proliferation experiment (CellTiter-Glo); format: cell-based; details: Homo sapiens, SW-620, 96 h, read-out: IC50(nM) SW620
[11] = test system: H358; experiment: Cell proliferation experiment (CellTiter-Glo); format: cell-based; details: Homo sapiens, NCI-H358; H358, KRAS mutation type G12C; 96 h incubation
[12] = in vitro; details: rat, microsomes

T1 sequence (P01116 1-188 isoform P01116-2 G12D): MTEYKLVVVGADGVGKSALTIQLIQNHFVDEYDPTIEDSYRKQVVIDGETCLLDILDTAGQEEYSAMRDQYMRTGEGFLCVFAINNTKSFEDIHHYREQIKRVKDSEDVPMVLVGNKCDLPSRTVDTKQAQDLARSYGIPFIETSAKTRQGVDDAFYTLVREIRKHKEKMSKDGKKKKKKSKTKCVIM

What does the source list for CCc1c(F)ccc2cc(O)cc(-c3ncc4c(N5CCC[C@@](C)(O)C5)nc(OCC5(CN6CCN(c7ccc(-c8cn([C@H](C(=O)N9C[C@H](O)C[C@H]9C(=O)N[C@@H](C)c9ccc(-c%10scnc%10C)cc9)C(C)C)nn8)cn7)CC6)CC5)nc4c3F)c12 [Compound 142]?
Dmax [1]: 95%; microsomal CLint [2]: 14.2 µL/min/mg; The in vitro intrinsic clearance in liver microsomes (CLint, in vitro, µL/min/mg protein) Rat: 0.0 µL/min/mg protein; IC50 [3]: 10 nM; microsomal CLint [4]: 17.7 µL/min/mg; Cl_obs [5]: 7.32 mL/min/kg; Vss_obs [5]: 0.854 L/kg; AUC(0-t) ([5]; mouse): 2300 ng·h/mL; C0 ([5]; mouse): 9460 ng/mL; half-life ([5]; mouse): 246 min; microsomal CLint [6]: 11.1 µL/min/mg; DC50 [7]: 6.3 nM

For CCc1c(F)ccc2cc(O)cc(-c3ncc4c(N5CCCC(C)(O)C5)nc(OC[C@]56CCCN5[C@@H](COC(=O)N5CCC7(CC5)CC(C(=O)N[C@H](C(=O)N5C[C@H](O)C[C@H]5C(=O)N[C@@H](C)c5ccc(-c8scnc8C)cc5)C(C)(C)C)C7)CC6)nc4c3F)c12 (stereo partly drawn) [Compound 2, ((3R,7aR)-7a-(((7-(8-ethyl-7-fluoro-3-hydroxynaphthalen-1-yl)-8-fluoro-4-(3-hydroxy-3-methylpiperidin-1-yl)pyrido[4,3-d]pyrimidin-2-yl)oxy)methyl)hexahydro-1H-pyrrolizin-3-yl)methyl 2-(((S)-1-((2S,4R)-4-hydroxy-2-(((S)-1-(4-(4-methylthiazol-5-yl)phenyl)ethyl)carbamoyl)pyrrolidin-1-yl)-3,3-dimethyl-1-oxobutan-2-yl)carbamoyl)-7-azaspiro[3.5]nonane-7-carboxylate], which Dmax [1] is on record?
Its Dmax is 95%.

What about the “The in vitro intrinsic clearance in liver microsomes (CLint, in vitro, µL/min/mg protein) Dog” value [8] of the same molecule?
Its value is 0.0 µL/min/mg protein.

What about the “Cl_obs” value [9] of the same molecule?
Its value is 3.77 mL/min/kg.

What about the “Vss_obs” value [9] of the same molecule?
The value was 0.586 L/kg.

And the AUC(0-t) ([9]; mouse)?
The AUC(0-t) was 4380 ng·h/mL.

And the C0 ([9]; mouse)?
Its C0 is 8790 ng/mL.

And the half-life ([9]; mouse)?
Its half-life is 389 min.

What about the IC50 [10] of the same molecule?
The IC50 was 501 nM.

What about the IC50 [3] of the same molecule?
The IC50 was 44 nM.

What about the microsomal CLint [4] of the same molecule?
Its microsomal CLint is 16.6 µL/min/mg.

What about the IC50 [11] of the same molecule?
The IC50 was 143 nM.

What about the microsomal CLint [6] of the same molecule?
The microsomal CLint was 31 µL/min/mg.

And the microsomal CLint [12]?
The microsomal CLint was 11.6 µL/min/mg.

What about the DC50 ([7]; AGS cell line, In Cell Western Blotting, KRAS^G12D vs GAPDH) of the same molecule?
Its DC50 is 316 nM.
